Reference: paper PMC6274642, “Small molecule inhibitors reveal allosteric regulation of USP14 via steric blockade” (Cell Research, 2018)

Legend:
IsoT = target: T1, IsoT (Homo sapiens, UniProt P45974); assay: Ub-AMC hydrolysis assay, IsoT; type: biochemical; conditions: 1 μM Ub-AMC, 10 nM IsoT
T1 construct: made in house
T1 sequence (P45974 1-858): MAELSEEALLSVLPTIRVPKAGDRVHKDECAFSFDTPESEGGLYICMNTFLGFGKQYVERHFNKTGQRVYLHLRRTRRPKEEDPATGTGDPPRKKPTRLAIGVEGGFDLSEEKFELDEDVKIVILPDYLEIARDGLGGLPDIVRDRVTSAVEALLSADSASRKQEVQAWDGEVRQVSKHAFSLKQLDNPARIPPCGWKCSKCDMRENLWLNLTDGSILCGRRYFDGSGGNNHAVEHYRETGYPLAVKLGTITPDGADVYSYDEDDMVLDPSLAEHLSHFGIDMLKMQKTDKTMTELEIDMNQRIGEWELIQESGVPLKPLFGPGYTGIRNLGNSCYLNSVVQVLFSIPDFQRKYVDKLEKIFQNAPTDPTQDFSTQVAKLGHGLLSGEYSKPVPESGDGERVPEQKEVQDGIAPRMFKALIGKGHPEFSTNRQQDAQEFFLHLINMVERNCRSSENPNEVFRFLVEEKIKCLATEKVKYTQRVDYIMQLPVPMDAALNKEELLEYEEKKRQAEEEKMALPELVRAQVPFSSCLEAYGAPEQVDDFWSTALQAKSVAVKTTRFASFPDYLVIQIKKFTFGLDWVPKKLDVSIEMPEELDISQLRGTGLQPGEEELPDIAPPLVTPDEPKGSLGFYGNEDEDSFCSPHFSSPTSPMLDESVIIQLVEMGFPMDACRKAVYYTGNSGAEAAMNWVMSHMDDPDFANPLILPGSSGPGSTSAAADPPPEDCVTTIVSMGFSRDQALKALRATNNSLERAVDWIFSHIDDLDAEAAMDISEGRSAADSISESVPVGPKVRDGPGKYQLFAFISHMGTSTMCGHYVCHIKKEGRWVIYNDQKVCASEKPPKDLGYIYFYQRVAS
Source text: Ub-AMC hydrolysis activity of IsoT.

USP14 H426E [1] = target: T2, USP14 H426E (Homo sapiens, UniProt P54578, H426E); assay: In vitro Ub-PA assay, USP14 H426E mutant; type: binding; parameters: catalytic domain (residues 96–494) of USP14 were cloned into the pGEX-6P-1 vector; GST (N); made in house
Target sequence in this assay (P54578 96-494 H426E): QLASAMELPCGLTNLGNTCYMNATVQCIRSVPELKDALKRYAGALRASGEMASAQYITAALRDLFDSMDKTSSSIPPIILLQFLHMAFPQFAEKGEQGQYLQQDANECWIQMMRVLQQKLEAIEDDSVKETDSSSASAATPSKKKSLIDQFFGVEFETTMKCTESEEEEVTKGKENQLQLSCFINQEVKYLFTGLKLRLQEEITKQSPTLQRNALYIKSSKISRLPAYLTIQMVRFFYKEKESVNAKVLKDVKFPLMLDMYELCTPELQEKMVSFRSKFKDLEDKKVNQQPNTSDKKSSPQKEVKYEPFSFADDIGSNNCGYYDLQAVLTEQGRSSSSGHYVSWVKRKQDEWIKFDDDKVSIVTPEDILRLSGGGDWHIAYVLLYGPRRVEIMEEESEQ

USP14 = target: T3, USP14 (Homo sapiens, UniProt P54578); assay: Kinetic analysis (Vm, Km) of Ub-AMC hydrolysis by USP14; type: biochemical; conditions: Km varied, Vm unchanged with inhibitor concentration
T3 construct: Glutathione S-transferase (GST)-tagged full-length USP14; GST (N); made in house
Method: Menten plot of the concentration-dependence of Ub-AMC (1-48 μM) hydrolysis in the presence
The data were fit to a curve by nonlinear regression
(§1) (1 picture or pasted object on this page, not shown here)

USP14 Y436A [2] = target: T4, USP14 Y436A (Homo sapiens, UniProt P54578, Y436A); assay: In vitro Ub-PA assay, USP14 Y436A mutant; type: binding; parameters: catalytic domain (residues 96–494) of USP14 were cloned into the pGEX-6P-1 vector; GST (N); made in house
Target sequence in this assay (P54578 96-494 Y436A): as the sequence (P54578 96-494 H426E) above, with E331H, Y341A counted along it

Solubility = type: physicochemical; conditions: qualitative
proteasome-bound USP14 = proteasome-bound USP14 (Homo sapiens, UniProt P54578); assay: Ub-AMC hydrolysis assay, proteasome-activated USP14
Method: It was used to measure the deubiquitinating activity of USP14 variants. The deubiquitination assay was performed by following a published protocol.[7] […] To start the reaction, 1 μM Ub-AMC was added to the system. […] Fluorescence intensity was recorded every 30 s for 15 min. Each experiment was repeated three times, and the average value was calculated.
curves for small-molecule-mediated inhibition of the Ub-AMC hydrolysis activity of
1 nM proteasome. (d-f) Dose-response curves for small-molecule-mediated inhibition of the
Ub-AMC hydrolysis activity of IsoT. The reaction system contained 1 μM Ub-AMC and 10
nM IsoT. All the values correspond to the averages of triplicate experiments.

UCH-L3 = target: T5, UCH-L3 (Homo sapiens, UniProt P15374); assay: In vitro Ub-PA assay, UCH-L3; type: binding; conditions: 5 mM compound, 3 μM DUB protein, 12 μM Ub-PA
T5 construct: made in house
T5 sequence (P15374 1-230): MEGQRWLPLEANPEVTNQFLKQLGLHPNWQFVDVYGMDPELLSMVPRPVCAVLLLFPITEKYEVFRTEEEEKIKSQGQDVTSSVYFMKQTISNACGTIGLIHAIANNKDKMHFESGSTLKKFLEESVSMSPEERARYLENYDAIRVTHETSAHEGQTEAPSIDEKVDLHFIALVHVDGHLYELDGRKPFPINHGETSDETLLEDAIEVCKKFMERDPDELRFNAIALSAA
Method: (§2) Linear kinetics of Ub-AMC hydrolysis are shown on the left, and the results of the statistical analysis are shown on the right. […] Error bars represent SDs. […] All the results were visualized by SDS-PAGE and Coomassie blue staining
(§3) For Ub-PA binding, 3 μM DUB protein (USP14^CAT, USP7^CAT, UCH-L1, or UCH-L3) was mixed with 12 μM Ub-PA for at least 1 h at room temperature in a reaction system containing 25 mM Tris-HCl (pH 7.5) and 150 mM NaCl. […] The DMSO concentration should be no more than 10% (v/v). All the samples were analyzed by SDS-PAGE, and the results are shown.

USP14 Y476A = target: T6, USP14 Y476A (Homo sapiens, UniProt P54578, Y476A); assay: Ub-AMC hydrolysis assay, USP14 Y476A mutant; type: biochemical; conditions: 15 μM compound
T6 construct: Glutathione S-transferase (GST)-tagged full-length USP14; GST (N); made in house
Source text: (§4) Supplementary information, Fig. S3 Structural and biochemical analyses of the three […]
(§5) (a) H426 of USP14 forms a hydrogen bind with R74 of Ub, while Y476 forms a hydrogen bound with D199. (b) The Y476K, Y476R and D199A point mutations all abolish the formation of USP14/Ub-PA complex. The result was visualized by SDS-PAGE and Coomassie blue staining. (c-f) Linear kinetics of Ub-AMC hydrolysis by USP14 WT, H426E, Y436A and […]
(§6) curves have R2>0.99. Error bars represent SDs.
as §1

USP7 F409A = target: T7, USP7 F409A (Homo sapiens, UniProt Q93009, F409A); assay: Ub-AMC hydrolysis assay, USP7 F409A; type: biochemical; conditions: 100 μM compound
T7 construct: made in house
T7 sequence (Q93009 whole entry F409A): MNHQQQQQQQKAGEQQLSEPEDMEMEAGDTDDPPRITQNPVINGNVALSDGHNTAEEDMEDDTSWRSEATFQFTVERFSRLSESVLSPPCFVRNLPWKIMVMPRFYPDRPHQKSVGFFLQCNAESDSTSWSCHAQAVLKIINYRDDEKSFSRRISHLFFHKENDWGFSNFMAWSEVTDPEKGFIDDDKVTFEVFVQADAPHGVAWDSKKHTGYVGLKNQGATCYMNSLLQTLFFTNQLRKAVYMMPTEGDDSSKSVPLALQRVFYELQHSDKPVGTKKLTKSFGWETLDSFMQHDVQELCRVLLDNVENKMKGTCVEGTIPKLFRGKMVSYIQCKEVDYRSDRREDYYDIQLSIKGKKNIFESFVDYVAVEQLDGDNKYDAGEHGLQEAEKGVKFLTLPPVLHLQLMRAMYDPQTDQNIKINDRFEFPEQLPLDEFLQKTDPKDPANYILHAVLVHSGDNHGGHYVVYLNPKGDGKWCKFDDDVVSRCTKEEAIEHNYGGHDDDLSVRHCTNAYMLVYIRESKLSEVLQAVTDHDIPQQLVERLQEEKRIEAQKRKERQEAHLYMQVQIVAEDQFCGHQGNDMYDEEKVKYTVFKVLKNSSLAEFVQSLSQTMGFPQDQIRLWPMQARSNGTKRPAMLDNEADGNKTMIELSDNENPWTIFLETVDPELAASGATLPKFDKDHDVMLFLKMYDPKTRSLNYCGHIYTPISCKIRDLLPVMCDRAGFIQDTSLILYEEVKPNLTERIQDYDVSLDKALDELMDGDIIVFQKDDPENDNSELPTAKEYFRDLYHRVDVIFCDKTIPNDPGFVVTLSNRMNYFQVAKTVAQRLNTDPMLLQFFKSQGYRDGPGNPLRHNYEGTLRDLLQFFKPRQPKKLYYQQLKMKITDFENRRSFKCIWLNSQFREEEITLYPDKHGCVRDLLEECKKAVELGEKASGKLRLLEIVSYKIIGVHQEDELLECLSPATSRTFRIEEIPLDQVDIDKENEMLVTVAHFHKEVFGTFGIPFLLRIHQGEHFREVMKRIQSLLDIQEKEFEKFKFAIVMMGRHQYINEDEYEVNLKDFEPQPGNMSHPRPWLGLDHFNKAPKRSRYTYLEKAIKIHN
Source text: To explain the selectivity of IU1, we first compared the sequence conservation among the USP family. USP14 shares homology with USP2, IsoT, USP7, and USP15, ranging from 28% to 35%, in the catalytic domain. […] First, we compared the structure of USP14^CAT-IU1 with that of apo USP7 (Fig. 3a, b). H426 and Y436 in USP14 aligned well with the corresponding residues in USP7. […] Consistent with this scenario, when we compared the primary sequence and structure of USP14^CAT-IU1 with UCH-L1 and UCH-L3, neither the primary sequence nor the structure of USP14 aligned well with UCH-L1 or UCH-L3 (Fig. 3e, f).
as §2

USP7 = target: T8, USP7 (Homo sapiens, UniProt Q93009); assay: In vitro Ub-PA assay, USP7; type: binding; conditions: 5 mM compound, 3 μM DUB protein, 12 μM Ub-PA
T8 construct: 3 μM DUB protein (USP14^CAT, USP7^CAT, UCH-L1, or UCH-L3); made in house
T8 sequence (Q93009 214-521 limits assumed): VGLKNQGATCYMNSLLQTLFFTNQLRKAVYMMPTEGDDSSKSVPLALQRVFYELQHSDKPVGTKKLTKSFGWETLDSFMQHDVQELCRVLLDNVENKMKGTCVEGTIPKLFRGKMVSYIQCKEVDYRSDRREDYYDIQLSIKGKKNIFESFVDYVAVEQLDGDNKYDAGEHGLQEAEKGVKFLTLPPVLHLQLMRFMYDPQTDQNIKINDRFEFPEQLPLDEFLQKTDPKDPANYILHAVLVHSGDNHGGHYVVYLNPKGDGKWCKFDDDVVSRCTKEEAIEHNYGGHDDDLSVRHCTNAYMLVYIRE
Method: as §2, §3

USP14 Y436A [3] = target: T4, USP14 Y436A; assay: Ub-AMC hydrolysis assay, USP14 Y436A mutant; type: biochemical; parameters: Glutathione S-transferase (GST)-tagged full-length USP14; GST (N); made in house; conditions: 15 μM compound
Source text: as §4, §5, §6, §1

UCH-L1 = target: T9, UCH-L1 (Homo sapiens, UniProt P09936); assay: In vitro Ub-PA assay, UCH-L1; type: binding; conditions: 5 mM compound, 3 μM DUB protein, 12 μM Ub-PA
T9 construct: made in house
T9 sequence (P09936 1-223): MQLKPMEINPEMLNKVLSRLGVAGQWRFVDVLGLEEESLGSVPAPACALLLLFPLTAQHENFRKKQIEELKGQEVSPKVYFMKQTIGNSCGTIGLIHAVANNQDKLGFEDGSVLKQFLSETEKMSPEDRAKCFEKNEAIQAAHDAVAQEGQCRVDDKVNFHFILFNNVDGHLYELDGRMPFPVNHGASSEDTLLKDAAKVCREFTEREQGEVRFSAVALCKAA
Method: as §2, §3

USP14 H426E [4] = target: T2, USP14 H426E; assay: Ub-AMC hydrolysis assay, USP14 H426E mutant; type: biochemical; parameters: Glutathione S-transferase (GST)-tagged full-length USP14; GST (N); made in house; conditions: 15 μM compound
Source text: as §4, §5, §6, §1

USP14^CAT = target: T10, USP14^CAT (Homo sapiens, UniProt P54578); assay: In vitro Ub-PA assay, USP14^CAT; type: binding; conditions: 5 mM compound, 3 μM USP14^CAT, preincubation 1 h 25 °C, 12 μM Ub-PA
T10 construct: catalytic domain (residues 96–494) of USP14 were cloned into the pGEX-6P-1 vector; GST (N, cleaved yes); made in house
T10 sequence (P54578 96-494): as the sequence (P54578 96-494 H426E) above, with E331H counted along it
Method: All the results were visualized by SDS-PAGE and Coomassie blue staining. Ub-PA ubiquitin-propargylamide
We then turned to the biochemical Ub-PA (ubiquitin-propargylamide) assay. […] The covalent attachment of Ub-PA (8 kD) to USP14^CAT (45 kD) produced the novel USP14/Ub-PA complex with an increased molecular weight (53 kD).
as §3

SMILES | IC50 (IsoT) | Inhibition of Ub-PA binding to USP14 H426E (USP14 H426E [1]; 2.5 mM IU1-248) | Mode of inhibition of USP14 (USP14) | Inhibition of Ub-PA binding to USP14 Y436A (USP14 Y436A [2]; 2.5 mM IU1-248) | Solubility (Solubility) | IsoT/USP14 (proteasome-bound USP14; ratio of IC50 values IsoT/USP14) | IC50 (proteasome-bound USP14; read-out: IC50 USP14, 1 μM Ub-AMC, 15 nM USP14, 1 nM proteasome) | Inhibition of binding of Ub-PA to UCH-L3 (UCH-L3) | Inhibition of Ub-AMC hydrolysis activity of USP14 Y476A (USP14 Y476A) | Effect on Ub-AMC hydrolysis activity of USP7 F409A (USP7 F409A) | Inhibition of Ub-PA binding to USP14 H426E (USP14 H426E [1]; 5 mM IU1) | Inhibition of binding of Ub-PA to USP7 (USP7) | Inhibition of Ub-AMC hydrolysis activity of USP14 Y436A (USP14 Y436A [3]) | Inhibition of binding of Ub-PA to UCH-L1 (UCH-L1) | Inhibition of Ub-AMC hydrolysis activity of USP14 H426E (USP14 H426E [4]) | Inhibition of formation of USP14/Ub-PA complex (USP14^CAT) | Inhibition of Ub-PA binding to USP14 Y436A (USP14 Y436A [2]; 5 mM IU1)
Cc1cc(C(=O)CN2CCC(O)CC2)c(C)n1-c1ccc(C#N)cc1 [IU1-248, 1-[1-(4-cyanophenyl)-2,5-dimethyl-1H-pyrrol-3-yl]-2-(4-hydroxyl) piperidylethan-1-one] | 21.5 µM | abolished the inhibitory effect | competitive mechanism | abolished the inhibitory effect | significantly improved solubility | – | – | – | – | – | – | – | – | – | – | – | –
Cc1cc(C(=O)CN2CCCCC2)c(C)n1-c1ccc(Cl)cc1 [IU1-47] | 29.1 µM | – | – | – | – | 42.85 | 0.68 µM | – | – | – | – | – | – | – | – | – | –
Cc1cc(C(=O)CN2CCCC2)c(C)n1-c1ccc(F)cc1 [IU1] | 143 µM | – | competitive inhibitor | – | poor solubility | – | – | did not inhibit | no inhibition | decreased | could not be inhibited | did not inhibit | no inhibition | did not inhibit | no inhibition | significantly inhibited | could not be inhibited
